The values that follow come from US8394952B2 (Vertex Pharmaceuticals Incorporated, priority 2006, dated 2013).

For orientation: Ki means a dissociation constant, usually derived from enzyme kinetics or from competition with a known ligand. Lower therefore signals a stronger hold on the target.

The test addresses Plk1 (Homo sapiens, UniProt P53350). The test is described as follows: biochemical.

Some results are limits rather than exact numbers.

Plk1, sequence (P53350 20-338): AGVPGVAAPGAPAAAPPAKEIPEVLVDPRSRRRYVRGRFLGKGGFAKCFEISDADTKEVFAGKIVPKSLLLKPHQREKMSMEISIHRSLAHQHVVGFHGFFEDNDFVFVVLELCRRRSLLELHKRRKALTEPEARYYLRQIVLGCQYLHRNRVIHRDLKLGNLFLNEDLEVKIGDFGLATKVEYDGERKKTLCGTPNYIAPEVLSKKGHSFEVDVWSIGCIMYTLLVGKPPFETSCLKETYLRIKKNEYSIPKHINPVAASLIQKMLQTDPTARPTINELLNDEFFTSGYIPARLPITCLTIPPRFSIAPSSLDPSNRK

Take `COc1cc(C(=O)O)ccc1Nc1ncc2c(n1)N(C1CCCC1)CCC(=O)N2C` [Compound I-1, 4-(9-Cyclopentyl-6,7,8,9-tetrahydro-5-methyl-6-oxo-5H-pyrimido[4,5-b][1,4]diazepin-2-ylamino)-3-methoxybenzoic acid]: the Ki was 0.01 to 0.1 µM. In turn, `CN1C(=O)CCN(C2CCCC2)c2nc(Nc3ccc(C(=O)O)cc3)ncc21` [Compound I-3, 4-(9-Cyclopentyl-6,7,8,9-tetrahydro-5-methyl-6-oxo-5H-pyrimido[4,5-b][1,4]diazepin-2-ylamino)-benzoic acid] displayed a Ki of 0.01 to 0.1 µM.

With `COc1cc(C(=O)NC2CCN(C(=O)OC(C)(C)C)CC2)ccc1Nc1ncc2c(n1)N(C1CCCC1)CCC(=O)N2C` [Compound I-5, 4-(9-cyclopentyl-6,7,8,9-tetrahydro-5-methyl-6-oxo-5H-pyrimido[4,5-b][1,4]diazepin-2-ylamino)-3-methoxy-N-[1-(tert-butoxycarbonyl)piperidin-4-yl]benzamide], the Ki is less than 0.01 µM. Turning to `COc1cc(C(=O)NC2CCNCC2)ccc1Nc1ncc2c(n1)N(C1CCCC1)CCC(=O)N2C` [Compound I-6, 4-(9-cyclopentyl-6,7,8,9-tetrahydro-5-methyl-6-oxo-5H-pyrimido[4,5-b][1,4]diazepin-2-ylamino)-3-methoxy-N-(piperidin-4-yl)benzamide], the Ki is less than 0.01 µM.

In the case of `COc1cc(C(=O)N2CCN(C(=O)OC(C)(C)C)CC2)ccc1Nc1ncc2c(n1)N(C1CCCC1)CCC(=O)N2C` [Compound I-7, 4-(9-cyclopentyl-6,7,8,9-tetrahydro-5-methyl-6-oxo-5H-pyrimido[4,5-b][1,4]diazepin-2-ylamino)-3-methoxyphenyl-(4-tert-butoxycarbonypiperazin-1-yl)methanone], the Ki is 0.01 to 0.1 µM.

In turn, `COc1cc(C(=O)N2CCNCC2)ccc1Nc1ncc2c(n1)N(C1CCCC1)CCC(=O)N2C` [Compound I-8, 4-(9-cyclopentyl-6,7,8,9-tetrahydro-5-methyl-6-oxo-5H-pyrimido[4,5-b][1,4]diazepin-2-ylamino)-3-methoxyphenyl(piperazin-1-yl)methanone] gave a Ki of 0.01 to 0.1 µM. To `CNC(=O)c1ccc(Nc2ncc3c(n2)N(C2CCCC2)CCC(=O)N3C)c(OC)c1` [Compound I-9, 4-(9-cyclopentyl-6,7,8,9-tetrahydro-5-methyl-6-oxo-5H-pyrimido[4,5-b][1,4]diazepin-2-ylamino)-3-methoxy-N-methylbenzamide] belongs less than 0.01 µM. As for `COc1cc(C(=O)O)ccc1Nc1ncc2c(n1)N(C1CCCC1)CC(C)C(=O)N2C` (centres unmarked) [Compound I-10, 4-(9-cyclopentyl-6,7,8,9-tetrahydro-5,7-dimethyl-6-oxo-5H-pyrimido[4,5-b][1,4]diazepin-2-ylamino)-3-methoxybenzoic acid], the figure is 0.01 to 0.1 µM; as for `COCCNC(=O)c1ccc(Nc2ncc3c(n2)N(C2CCCC2)CCC(=O)N3C)c(OC)c1` [Compound I-11, 4-(9-cyclopentyl-6,7,8,9-tetrahydro-5-methyl-6-oxo-5H-pyrimido[4,5-b][1,4]diazepin-2-ylamino)-3-methoxy-N-(2-methoxyethyl)benzamide], less than 0.01 µM; as for `COc1cc(C(=O)NC2CCN(C)CC2)ccc1Nc1ncc2c(n1)N(C1CCCC1)CC(C)C(=O)N2C` (centres unmarked) [Compound I-12, 4-(9-cyclopentyl-6,7,8,9-tetrahydro-5,7-dimethyl-6-oxo-5H-pyrimido[4,5-b][1,4]diazepin-2-ylamino)-3-methoxy-N-(1-methylpiperidin-4-yl)benzamide], less than 0.01 µM. As for `COc1cc(C(=O)NC2CCN(C)CC2)ccc1Nc1ncc2c(n1)N(C)CCC(=O)N2C` [Compound I-14, 4-(6,7,8,9-tetrahydro-5,9-dimethyl-6-oxo-5H-pyrimido[4,5-b][1,4]diazepin-2-ylamino)-3-methoxy-N-(1-methylpiperidin-4-yl)benzamide], the figure is 0.01 to 0.1 µM. `CNC(=O)c1ccc(Nc2ncc3c(n2)N(C2CCCC2)[C@@H]2CCC[C@@H]2C(=O)N3C)c(OC)c1` [Compound I-15, 4-((3aR,10aS)-4-cyclopentyl-9-methyl-10-oxo-1,2,3,3a,4,9,10,10a-octahydro-4,5,7,9-tetraaza-benzo[f]azulen-6-ylamino)-3-methoxy-N-methylbenzamide] yielded a Ki of 0.01 to 0.1 µM. `CNC(=O)c1ccc(Nc2ncc3c(n2)N(C2CCCC2)CC(C)(C)C(=O)N3C)c(OC)c1` [Compound I-16, 4-(9-cyclopentyl-6,7,8,9-tetrahydro-5,7,7-trimethyl-6-oxo-5H-pyrimido[4,5-b][1,4]diazepin-2-ylamino)-3-methoxy-N-methylbenzamide] showed a Ki of less than 0.01 µM.

`CNC(=O)c1ccc(Nc2ncc3c(n2)N(C2CCCC2)C[C@H](C)C(=O)N3C)c(OC)c1` [Compound I-17, 4-((S)-9-cyclopentyl-6,7,8,9-tetrahydro-5,7-dimethyl-6-oxo-5H-pyrimido[4,5-b][1,4]diazepin-2-ylamino)-3-methoxy-N-methylbenzamide] showed a Ki of less than 0.01 µM.

`CNC(=O)c1ccc(Nc2ncc3c(n2)N(C2CCCC2)C[C@@H](C)C(=O)N3C)c(OC)c1` [Compound I-18, 4-((R)-9-cyclopentyl-6,7,8,9-tetrahydro-5,7-dimethyl-6-oxo-5H-pyrimido[4,5-b][1,4]diazepin-2-ylamino)-3-methoxy-N-methylbenzamide] gave an inhibitory constant (Ki) of less than 0.01 µM. As for `CNC(=O)c1ccc(Nc2ncc3c(n2)N([C@@H]2CCNC2)CC(C)(C)C(=O)N3C)c(OC)c1` [Compound I-19, 4-(6,7,8,9-tetrahydro-5,7,7-trimethyl-6-oxo-9-((R)-pyrrolidin-3-yl)-5H-pyrimido[4,5-b][1,4]diazepin-2-ylamino)-3-methoxy-N-methylbenzamide], the figure is 0.01 to 0.1 µM; as for `CNC(=O)c1ccc(Nc2ncc3c(n2)N([C@@H]2CCN(C)C2)CC(C)(C)C(=O)N3C)c(OC)c1` [Compound I-20, 4-(6,7,8,9-tetrahydro-5,7,7-trimethyl-9-((R)-1-methylpyrrolidin-3-yl)-6-oxo-5H-pyrimido[4,5-b][1,4]diazepin-2-ylamino)-3-methoxy-N-methylbenzamide], 0.01 to 0.1 µM. To `COc1cc(C(=O)NC2CCN(C)CC2)ccc1Nc1ncc2c(n1)N(C1CCCC1)C[C@H](C)C(=O)N2C` [Compound I-21, 4-((S)-9-cyclopentyl-6,7,8,9-tetrahydro-5,7-dimethyl-6-oxo-5H-pyrimido[4,5-b][1,4]diazepin-2-ylamino)-3-methoxy-N-(1-methylpiperidin-4-yl)benzamide] belongs less than 0.01 µM.

In turn, `COc1cc(C(=O)NC2CCN(C)CC2)ccc1Nc1ncc2c(n1)N(C1CCCC1)C[C@@H](C)C(=O)N2C` [Compound I-22, 4-((R)-9-cyclopentyl-6,7,8,9-tetrahydro-5,7-dimethyl-6-oxo-5H-pyrimido[4,5-b][1,4]diazepin-2-ylamino)-3-methoxy-N-(1-methylpiperidin-4-yl)benzamide] came in with a Ki of less than 0.01 µM.

On to `COc1cc(C(=O)NC2CCN(C)CC2)ccc1Nc1ncc2c(n1)N(C1CCCC1)CC(C)(C)C(=O)N2C` [Compound I-23, 4-(9-cyclopentyl-6,7,8,9-tetrahydro-5,7,7-trimethyl-6-oxo-5H-pyrimido[4,5-b][1,4]diazepin-2-ylamino)-3-methoxy-N-(1-methylpiperidin-4-yl)benzamide], for which the inhibition constant Ki is less than 0.01 µM.
